What all share (format): cell-based, human
Test [1] has as its system regular H226 and H520 cells. The test is described as follows: Proliferation of regular cancer cells. To be noted: for cell proliferation of regular H226 and H520 cells: 3-day treatment. Here is the method: All gene expression and survival data were obtained from publicly-available resources: NCI TCGA and NCBI GEO. Human lung cancer tissue samples were purchased from US Biomax. Cell imaging was acquired using a confocal laser scanning microscope at the Stanford Fluorescence Microscopy Core. FACS was done at the Stanford FACS core facility. All sphere-forming assays and mouse xenograft model were performed at the Stanford Transgenic, Knockout and Tumor Model Center. qRT-PCR and sequencing was performed at Stanford Protein and Nucleic Acid Facility. • A. Text mining of lung TIC associated literature. PubMed literatures were queried on Apr. 13, 2015, using the search term, (“Neoplastic Stem Cells”[majr] OR “tumor-propagating cells”[All Fields]) AND “lung cancer”[All Fields]. […] Words with a prefix “CD” followed by digits were extracted from the title and abstract of each article. Resulted terms were manually examined. Immune cell CD markers were excluded from the list. CD marker with positive sign, such as CD133+, was treated as different from CD133 or CD133−. The number of unique occurrence of each term is counted in titles and abstracts. Terms occurred in at least two different articles were selected for ranking by its occurrence frequency. • B. Primary Tumor Cell Preparation. SQCC samples were collected from patients according to protocols approved by the Stanford IRB board. Samples were washed, dissociated, and incubated in DNase and collagenase/dispase. After incubation, cell clusters and red blood cells were removed. The single cells were resuspended and prepared for cell culture and staining. • C. Microarray datasets. The TOGA lung cancer gene expression datasets were downloaded from the TOGA data portal on September 2012. […] Meta-analysis of correlations were performed using R package meta, where fixed and random effects estimates were calculated and inverse variance weighting was used for pooling. […] Quantitative IF imaging signal of human lung tissue samples were measured using the Bioquant image analysis software in the Nikon 8000 microscope and Leica DMI 6000B. • E. Flow Cytometry. […]

In another test the test system is ERK1/2. Put plainly: ERK1/2 phosphorylation, western blot.
Test [2] has as its system tumor spheres of H226 and H520 cells. Put plainly: Sphere-forming assay (tumor spheres / TIC growth). The protocol:
All gene expression and survival data were obtained from publicly-available resources: NCI TCGA and NCBI GEO. Human lung cancer tissue samples were purchased from US Biomax. Cell imaging was acquired using a confocal laser scanning microscope at the Stanford Fluorescence Microscopy Core. FACS was done at the Stanford FACS core facility. All sphere-forming assays and mouse xenograft model were performed at the Stanford Transgenic, Knockout and Tumor Model Center. qRT-PCR and sequencing was performed at Stanford Protein and Nucleic Acid Facility. • A. Text mining of lung TIC associated literature. PubMed literatures were queried on Apr. 13, 2015, using the search term, (“Neoplastic Stem Cells”[majr] OR “tumor-propagating cells”[All Fields]) AND “lung cancer”[All Fields]. […] Words with a prefix “CD” followed by digits were extracted from the title and abstract of each article. Resulted terms were manually examined. Immune cell CD markers were excluded from the list. CD marker with positive sign, such as CD133+, was treated as different from CD133 or CD133−. The number of unique occurrence of each term is counted in titles and abstracts. Terms occurred in at least two different articles were selected for ranking by its occurrence frequency. • B. Primary Tumor Cell Preparation. SQCC samples were collected from patients according to protocols approved by the Stanford IRB board. Samples were washed, dissociated, and incubated in DNase and collagenase/dispase. After incubation, cell clusters and red blood cells were removed. The single cells were resuspended and prepared for cell culture and staining. • C. Microarray datasets. The TOGA lung cancer gene expression datasets were downloaded from the TOGA data portal on September 2012. No significant changes in available sample size were found during a recent check. These datasets were selected based on two criteria: explicit pathological diagnosis of SQCC and associated with an actual publication. Pearson or Spearman correlation analysis was used for the association study, depending on whether the distribution of the gene expression data is parametric or non-parametric. Multiple hypothesis testing was corrected using false discovery rates to select associations with a q value less than 0.1. Meta-analysis of correlations were performed using R package meta, where fixed and random effects estimates were calculated and inverse variance weighting was used for pooling. Survival data was extracted from all the datasets whenever they were available. Proportional hazards regression analysis was performed with the gene expression of OXTR and CD133 as covariates. Proportional hazard hypothesis was test based on weighted residuals. • D. Cell Culture and Imaging. H226, H520, HCC827, H522 and NL20 cell lines were purchased from ATCC and cultured in recommended cell medium for bulk cancer cell growth. HCC95 and H157 were from Dr. Sage's laboratory. APC conjugated mouse anti-CD133 Ab (BioLegend 14208), goat anti-OXTR Ab (Life Technologies ab87312) with anti-goat Alexa488 (Life Technologies A11055), rabbit anti-CD44 (Santa Cruz Biotech sc-7946) with anti-rabbit Alexa594 (Life Technologies A21207) and rabbit anti-OXT with anti-rabbit Alexa594 were used to stain CD133, OXTR, CD44 and OXT respectively in human tissue samples and cell lines for immunofluorescence (IF) imaging. Goat F(ab′)2 IgG (Life Technologies 11301C) and isotype control for rabbit primary Ab (Life Technology 08-6199) were used as isotype control of OXTR Ab and CD133 Ab. Quantitative IF imaging signal of human lung tissue samples were measured using the Bioquant image analysis software in the Nikon 8000 microscope and Leica DMI 6000B. • E. Flow Cytometry. Cells were stained with CD133, CD44 or OXTR Ab separately for single channel counting, and stained with CD133 and OXTR Ab for double channel counting and sorting. Cells were also stained for secondary Ab alone for subtraction of non-specific binding. […]

In a further test the test system is H226 and H520 cells. The test is described as follows: Colony formation. To be noted: statistically significant at 0.5 μM, 5 μM and 10 μM. The text has this: To determine whether the expression of OXTR is associated with the growth of regular cancer cells and TICs, we treated regular cancer cells and tumor spheres of SQCC cell lines with an OXTR specific inhibitor (Manning et al.,“Oxytocin and vasopressin agonists and antagonists as research tools and potential therapeutics,” Journal of neuroendocrinology (2012) 24: 609-628), L-368,899 (L3) to suppress its activity, or its natural ligand oxytocin (OXT) to induce its activity.

In test [3] the test system is tumor spheres derived from primary SQCC cells. Put plainly: Sphere-forming assay, primary SQCC cells. As to conditions: at 5 μM; three days. The protocol: All gene expression and survival data were obtained from publicly-available resources: NCI TCGA and NCBI GEO. Human lung cancer tissue samples were purchased from US Biomax. Cell imaging was acquired using a confocal laser scanning microscope at the Stanford Fluorescence Microscopy Core. FACS was done at the Stanford FACS core facility. All sphere-forming assays and mouse xenograft model were performed at the Stanford Transgenic, Knockout and Tumor Model Center. qRT-PCR and sequencing was performed at Stanford Protein and Nucleic Acid Facility. • A. Text mining of lung TIC associated literature. PubMed literatures were queried on Apr. 13, 2015, using the search term, (“Neoplastic Stem Cells”[majr] OR “tumor-propagating cells”[All Fields]) AND “lung cancer”[All Fields]. […] Words with a prefix “CD” followed by digits were extracted from the title and abstract of each article. Resulted terms were manually examined. […] The number of unique occurrence of each term is counted in titles and abstracts. […] Meta-analysis of correlations were performed using R package meta, where fixed and random effects estimates were calculated and inverse variance weighting was used for pooling. […] Quantitative IF imaging signal of human lung tissue samples were measured using the Bioquant image analysis software in the Nikon 8000 microscope and Leica DMI 6000B. • E. Flow Cytometry. […]

Regarding `N#CC(=C(/N)Sc1ccccc1N)/C(C#N)=C(\N)Sc1ccccc1N` [U0126], the “proliferation in regular cancer cells” value in test [1] (H226 and H520 cells) is “increased proliferation”. For the same compound, the “OXT induced phosphorylation of ERK1/2” value with ERK1/2 (CCs and TICs of H226 and H520 cell lines, co-treatment with OXT) was “inhibited”. The “rescue of the inhibitory effect by increasing dose of OXT” value in test [2] (H226 and H520) was “could not be rescued”. In test [2] (H226 and H520 spheres), the TIC growth entry was “dose dependent inhibition”. Besides, the “OXT induced increase of TIC growth” value in test [2] (both H226 and H520 cells, co-treatment with OXT) is listed as “blocked”.
Turning to `Cc1ccccc1N1CCN(S(=O)(=O)C[C@]23CC[C@H](C[C@@H]2NC(=O)[C@@H](N)CCS(C)(=O)=O)C3(C)C)CC1` [L3, (S)-2-amino-N-((1S,2S,4R)-7,7-dimethyl-1-((4-o-tolylpiperazin-1-lsulfonyl)methyl)bicyclo[2.2.1]heptan-2-yl)-4-(methylsulfonyl)butanamide], the “cell proliferation of regular H226 and H520 cells” value in test [1] is reported as “neither L3 nor OXT affected the cell proliferation”. Further, in the test on H226 and H520 cells, the “colony formation of H226 and H520 cells” value is listed as “reduced the colony formation”. Moreover, the “sphere growth of tumor spheres derived from primary SQCC cells” value in test [3] is “significantly reduced the sphere growth”. The tumor sphere numbers result in test [2] (H226 and H520 cells, after 3 days of treatment, statistically significant at 5 μM and 10 μM) is “dose-dependent decrease”.
Turning to `CC[C@H](C)[C@@H]1NC(=O)[C@H](Cc2ccc(O)cc2)NC(=O)[C@@H](N)CSSC[C@@H](C(=O)N2CCC[C@H]2C(=O)N[C@@H](CC(C)C)C(=O)NCC(N)=O)NC(=O)[C@H](CC(N)=O)NC(=O)[C@H](CCC(N)=O)NC1=O` [OXT, oxytocin], the “cell proliferation of regular H226 and H520 cells” value in test [1] was “neither L3 nor OXT affected the cell proliferation”. In the test on ERK1/2 (100 nM for two days, compared to solvent control), the “phosphorylation of ERK1/2 in regular H226 and H520 cells” value was “unchanged”. Besides, the “phosphorylation of ERK1/2 in TICs” value with ERK1/2 (100 nM for two days, compared to solvent control, tumor spheres of H226 and H520) is “greatly increased”. In addition, the “tumor sphere size vs solvent control” value in test [2] (H226 and H520 tumor spheres treated for three days) is reported as “significantly larger”. Further, the tumor sphere growth entry in test [2] (both cell lines (H226, H520), statistically significant at as low as 10 nM) is “dose dependent increase”.

For the origin of these results see patent US20170198292A1, “Methods and Compositions for Modulating Lung Cancer Tumor Initiating Cells (TIC), and Oxytocin Receptor (OXTR) Modulatory Agents for Use in Practicing the Same” (The Board of Trustees of the Leland Stanford Junior …, priority 2014, published 2017).
